In ChEMBL document CHEMBL1201862, “PubChem BioAssay data set” (2004):
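Values below derive from 48-hour exposures of cells grown in 96-well plates, with endpoints linearly interpolated between the two concentrations bracketing the appropriate inhibition level. At the GI50, growth is halved.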 Calls of active or inactive are those of the source. Rule as the data show it: active = GI50 up to about 1.1 µM and inactive = higher.

Tests used:
Test in all cases: NCI anticancer screen, dose series, 48 h
[1] = tested on: OVCAR-4
[2] = tested on: SF-539
[3] = tested on: MDA-N
[4] = tested on: LOX IMVI
[5] = tested on: SF-295
[6] = tested on: COLO 205
[7] = tested on: MCF7
[8] = tested on: PC-3
[9] = tested on: CAKI-1
[10] = tested on: HT-29
[11] = tested on: EKVX
[12] = tested on: MDA-MB-231
[13] = tested on: UACC-62
[14] = tested on: HCT-15
[15] = tested on: NCI-H226
[16] = tested on: NCI-H460
[17] = tested on: UACC-257
[18] = tested on: CCRF-CEM

Row | Compound | GI50 [1] | GI50 [2] | GI50 [3] | GI50 [4] | GI50 [5] | GI50 [6] | GI50 [7] | GI50 [8] | GI50 [9] | GI50 [10] | GI50 [11] | GI50 [12] | GI50 [13] | GI50 [14] | GI50 [15] | GI50 [16] | GI50 [17] | GI50 [18]
1 | O=C(O)c1cccc(OCCO)c1 | > 100 µM (inactive) | > 100 µM (inactive) | > 100 µM (inactive) | > 100 µM (inactive) | > 100 µM (inactive) | > 100 µM (inactive) | > 100 µM (inactive) | > 100 µM (inactive) | > 100 µM (inactive) | > 100 µM (inactive) | > 100 µM (inactive) | > 100 µM (inactive) | > 100 µM (inactive) | > 100 µM | > 100 µM (inactive) | > 100 µM (inactive) | > 100 µM (inactive) | 
2 | CC1=NN(c2ccccc2)C(=O)/C1=C\c1c(C)[nH]n(-c2ccccc2)c1=O | > 100 µM (inactive) | > 100 µM (inactive) | > 100 µM (inactive) |  | > 100 µM (inactive) | > 100 µM (inactive) | > 100 µM (inactive) | 77.4 µM (inactive) | > 100 µM (inactive) | 81.1 µM (inactive) | > 100 µM (inactive) | > 100 µM (inactive) | > 100 µM (inactive) | > 100 µM | > 100 µM (inactive) | > 100 µM (inactive) | > 100 µM (inactive) | 75.9 µM (inactive)
3 | COc1ccccc1N/C(SCc1ccccc1)=C(/C(Cl)=C(Cl)Cl)[N+](=O)[O-] | 22 µM (inactive) | 17.4 µM (inactive) | 28.9 µM (inactive) |  | 25.7 µM (inactive) | 19.5 µM (inactive) | 25.9 µM (inactive) | 31.8 µM (inactive) | 28.8 µM (inactive) | 20.3 µM (inactive) | 32 µM (inactive) | 18.7 µM (inactive) | 48 µM (inactive) | 20.7 µM | 35.5 µM (inactive) | 58.2 µM (inactive) | 85.3 µM (inactive) | 23.6 µM (inactive)
4 | COC(=O)[C@H]1[C@H](OC(=O)[C@@H](OC)c2ccccc2)ON2CC[C@@H](OC(=O)c3ccccc3)[C@H]12 | > 100 µM (inactive) |  | > 100 µM (inactive) | > 100 µM (inactive) | 39.4 µM (inactive) | > 100 µM (inactive) | 3.83 µM (inactive) | > 100 µM (inactive) | 45.2 µM (inactive) | 51.3 µM (inactive) | > 100 µM (inactive) | 74.3 µM (inactive) | 10.7 µM (inactive) | > 100 µM | > 100 µM (inactive) | > 100 µM (inactive) | > 100 µM (inactive) | > 100 µM (inactive)
5 | CNc1ccc(C(=O)CC(O)CCC(C)C2OC(=O)CC(O)CC(=O)CC(O)CC(O)CC(O)CC(O)CC3(O)CC(O)C(C(=O)NCCN(C)C)C(CC(OC4OC(C)C(O)C(NC(=O)CN5CCN(C)CC5)C4O)\C=C/C=C\C=C/C=C/C=C/C=C\C=C/C2C)O3)cc1 (stereo unspecified) | 14 µM (inactive) | 37.7 µM (inactive) | 6.46 µM (inactive) | 2.92 µM (inactive) | 25.2 µM (inactive) | 3.86 µM (inactive) | 2.36 µM (inactive) | > 100 µM (inactive) | > 100 µM (inactive) | 3.85 µM (inactive) |  | 81.7 µM (inactive) | 46.2 µM (inactive) | 6.18 µM | > 100 µM (inactive) | 4.73 µM (inactive) | 10.7 µM (inactive) | 
6 | CCCC(=O)NC(Nc1ccc(F)cc1)(C(F)(F)F)C(F)(F)F | 12.6 µM (inactive) | > 79.4 µM (inactive) | > 40.7 µM (inactive) | 0.404 µM (active) | 24.5 µM (inactive) | 7.1 µM (inactive) | > 37.7 µM (inactive) | 19.1 µM (inactive) | > 100 µM (inactive) | 64.3 µM (inactive) | > 100 µM (inactive) | > 100 µM (inactive) | 1.09 µM (active) | 5.79 µM | > 100 µM (inactive) | 56.5 µM (inactive) | 8.2 µM (inactive) | 
